ChEMBL document CHEMBL1201862, “PubChem BioAssay data set” (2004)
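Results reflect a 48-hour exposure of cells in 96-well plates to compound at five concentrations. GI50 marks 50% less growth.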 Active and inactive are the calls of the source. Rule as the data show it: active = GI50 up to about 1.1 µM and inactive = higher.

Experiments:
Experiment in all cases: DTP human tumour cell line panel, 48 h
SW-620 = tested on: SW-620
RPMI-8226 = tested on: RPMI-8226
HCT-15 = tested on: HCT-15
UACC-62 = tested on: UACC-62
HOP-62 = tested on: HOP-62
NCI-H522 = tested on: NCI-H522
SK-MEL-28 = tested on: SK-MEL-28
KM-20L2 = tested on: KM-20L2
UACC-257 = tested on: UACC-257
HOP-92 = tested on: HOP-92
NCI-H23 = tested on: NCI-H23
CCRF-CEM = tested on: CCRF-CEM
KM12 = tested on: KM12
OVCAR-8 = tested on: OVCAR-8
NCI-H226 = tested on: NCI-H226
Malme-3M = tested on: Malme-3M

SMILES	GI50 (SW-620)	GI50 (RPMI-8226)	GI50 (HCT-15) [µM]	GI50 (UACC-62)	GI50 (HOP-62)	GI50 (NCI-H522)	GI50 (SK-MEL-28)	GI50 (KM-20L2)	GI50 (UACC-257)	GI50 (HOP-92)	GI50 (NCI-H23)	GI50 (CCRF-CEM)	GI50 (KM12)	GI50 (OVCAR-8)	GI50 (NCI-H226)	GI50 (Malme-3M)
CC1(C)C=C(N2CCN(C3=CC(C)(C)NC(C)(C)C3)CC2)CC(C)(C)N1	> 100 µM (inactive)	> 100 µM (inactive)	> 100	> 100 µM (inactive)	> 100 µM (inactive)	> 100 µM (inactive)	> 100 µM (inactive)	> 100 µM (inactive)	> 100 µM (inactive)	> 100 µM (inactive)	> 100 µM (inactive)	> 100 µM (inactive)	> 100 µM (inactive)	> 100 µM (inactive)		
COc1ccc2c(c1)[n+]([O-])c(C(=O)CC(=O)C(=O)Nc1cccc(C)c1C)c(C)[n+]2[O-]	> 100 µM (inactive)	> 100 µM (inactive)	> 100	> 100 µM (inactive)	> 100 µM (inactive)	> 100 µM (inactive)	> 100 µM (inactive)	> 100 µM (inactive)	> 100 µM (inactive)	> 100 µM (inactive)	> 100 µM (inactive)	> 100 µM (inactive)	> 100 µM (inactive)	> 100 µM (inactive)	> 100 µM (inactive)	> 100 µM (inactive)
Cc1ccc(N2C(=O)/C(=C3\Sc4c(nc(C)n(C)c4=O)N3c3ccccc3)SC2=S)cc1	> 100 µM (inactive)	> 100 µM (inactive)	> 100	45.7 µM (inactive)		> 100 µM (inactive)	41.1 µM (inactive)	> 100 µM (inactive)	> 100 µM (inactive)	33.8 µM (inactive)	> 100 µM (inactive)	> 100 µM (inactive)	> 100 µM (inactive)	27.9 µM (inactive)	26 µM (inactive)	
CCOC(=O)/C(=C\c1ccc(OCc2ccccc2)c(OC)c1)C(=O)c1ccccc1	18.4 µM (inactive)	27.6 µM (inactive)	20.4	23.3 µM (inactive)	18.9 µM (inactive)	17.7 µM (inactive)	14.6 µM (inactive)	19.5 µM (inactive)	> 10 µM (inactive)		19.3 µM (inactive)	23.6 µM (inactive)	19.5 µM (inactive)	> 10 µM (inactive)	25.7 µM (inactive)	16.7 µM (inactive)
COc1ccc(Cn2c(C)nc3c2C(=O)c2ccccc2C3=O)cc1	8.07 µM (inactive)		1.72	4.58 µM (inactive)	11.6 µM (inactive)	6.01 µM (inactive)	21 µM (inactive)	11.6 µM (inactive)	10.4 µM (inactive)		7 µM (inactive)	4.05 µM (inactive)	5.31 µM (inactive)	7.01 µM (inactive)	14.3 µM (inactive)	9.46 µM (inactive)
O=C1OC(Cc2ccccc2)(N2CCCC2=O)C1c1ccccc1 (configuration not stated)	65.5 µM (inactive)	59.4 µM (inactive)		60 µM (inactive)	> 100 µM (inactive)	48.2 µM (inactive)	> 100 µM (inactive)	> 100 µM (inactive)	> 100 µM (inactive)	62.8 µM (inactive)	70.5 µM (inactive)	43.9 µM (inactive)	74.8 µM (inactive)	> 100 µM (inactive)	> 100 µM (inactive)	> 100 µM (inactive)
CC(=O)OCc1c2ccccc2c(C)c2c1cc(F)c1ccccc12	20.5 µM (inactive)			20.7 µM (inactive)	45.6 µM (inactive)	12.2 µM (inactive)	97.5 µM (inactive)	28.8 µM (inactive)	> 100 µM (inactive)	40.6 µM (inactive)	23.1 µM (inactive)	12.2 µM (inactive)	> 100 µM (inactive)	18.9 µM (inactive)	25.9 µM (inactive)	52.2 µM (inactive)
Cc1ccc(/C=N\NC2c3cc(Cl)ccc3Nc3nc(O)nc(C)c32)cc1 (configuration not stated)	67.8 µM (inactive)	45 µM (inactive)		> 100 µM (inactive)	> 100 µM (inactive)	> 100 µM (inactive)	> 100 µM (inactive)	> 100 µM (inactive)	88.9 µM (inactive)	43.3 µM (inactive)	> 100 µM (inactive)	96.6 µM (inactive)	> 100 µM (inactive)	72.6 µM (inactive)	> 100 µM (inactive)	> 100 µM (inactive)
CC(=S)NNC(=O)c1ccncc1	> 100 µM (inactive)		> 100	> 100 µM (inactive)	> 100 µM (inactive)	> 100 µM (inactive)	> 100 µM (inactive)	> 100 µM (inactive)	> 100 µM (inactive)	> 100 µM (inactive)	> 100 µM (inactive)	> 100 µM (inactive)	> 100 µM (inactive)	> 100 µM (inactive)	> 100 µM (inactive)	> 100 µM (inactive)
Cc1ccc(S(=O)OC23CC4CC(CC(C4)C2)C3)cc1 (configuration not stated)	84.1 µM (inactive)	41.4 µM (inactive)	> 100	> 100 µM (inactive)	> 100 µM (inactive)	30.5 µM (inactive)	> 100 µM (inactive)	> 100 µM (inactive)	> 100 µM (inactive)	> 100 µM (inactive)	> 100 µM (inactive)		> 100 µM (inactive)	> 100 µM (inactive)	> 100 µM (inactive)	> 100 µM (inactive)
[O-][Cl+3]([O-])([O-])O.c1ccc(/N=c2\nc(N3CCOCC3)ss2)cc1	10.2 µM (inactive)		15.5	13.8 µM (inactive)	41.3 µM (inactive)	12.7 µM (inactive)	17.2 µM (inactive)	16.5 µM (inactive)	15.8 µM (inactive)	21.9 µM (inactive)	29.5 µM (inactive)	0.016 µM (active)	17.2 µM (inactive)	15 µM (inactive)	61.1 µM (inactive)	14.8 µM (inactive)
COc1ccc(C2=C(Cl)c3cc(OC)c(OC)cc3C2)cc1OC	> 100 µM (inactive)	> 100 µM (inactive)	> 100	> 100 µM (inactive)	> 100 µM (inactive)	> 100 µM (inactive)	> 100 µM (inactive)	> 100 µM (inactive)	> 100 µM (inactive)	> 100 µM (inactive)	> 100 µM (inactive)	> 100 µM (inactive)		> 100 µM (inactive)	> 100 µM (inactive)	> 100 µM (inactive)
COc1ccc(CCNCc2cccc(OC)c2OC)cc1OC	> 100 µM (inactive)	> 100 µM (inactive)	> 100	> 100 µM (inactive)	> 100 µM (inactive)	> 100 µM (inactive)	> 100 µM (inactive)	> 100 µM (inactive)	> 100 µM (inactive)	38.1 µM (inactive)	> 100 µM (inactive)	> 100 µM (inactive)	> 100 µM (inactive)	> 100 µM (inactive)		> 100 µM (inactive)
COC(=O)C1=C(c2cc(OC)c(OC)c(OC)c2)OC(c2cc(OC)c(OC)c(OC)c2)C1 (configuration not stated)	34.4 µM (inactive)	23.1 µM (inactive)	22.7	12.8 µM (inactive)	37.8 µM (inactive)		53.1 µM (inactive)	22.5 µM (inactive)	23.9 µM (inactive)	10.7 µM (inactive)	19.5 µM (inactive)	24.1 µM (inactive)	17.7 µM (inactive)	32.1 µM (inactive)	17.1 µM (inactive)	31.3 µM (inactive)
CC(=O)C(CN(C(C)C)C(C)C)C(c1ccccc1)c1c(O)c2ccccc2oc1=O (configuration not stated)	> 100 µM (inactive)	> 100 µM (inactive)	> 100	> 100 µM (inactive)	> 100 µM (inactive)	> 100 µM (inactive)	> 100 µM (inactive)	> 100 µM (inactive)	> 100 µM (inactive)		> 100 µM (inactive)	> 100 µM (inactive)	> 100 µM (inactive)	> 100 µM (inactive)	> 100 µM (inactive)	> 100 µM (inactive)
COc1cc(/C=C2\[C@@H]3NC(Cc4c(OC)c(C)c(OC)c(OC)c43)C(=O)N2Cc2ccccc2)c(OC)c(C)c1OC	68.9 µM (inactive)	29.8 µM (inactive)		47.5 µM (inactive)	54.1 µM (inactive)	18.4 µM (inactive)	60.7 µM (inactive)	37.8 µM (inactive)	34.7 µM (inactive)	20 µM (inactive)	49.7 µM (inactive)	30.8 µM (inactive)	56.1 µM (inactive)	36.1 µM (inactive)	36.7 µM (inactive)	28.2 µM (inactive)
CC(CC[C@@H](C)C1CCC2[C@@H]3CC(O)C4CC(O)[C@@H](O)C[C@]4(C)C3CC[C@@]21C)C(C)(C)C (some centres not stated)	> 100 µM (inactive)	> 100 µM (inactive)	> 100	> 100 µM (inactive)	> 100 µM (inactive)		> 100 µM (inactive)	> 100 µM (inactive)	> 100 µM (inactive)	> 100 µM (inactive)	> 100 µM (inactive)	> 100 µM (inactive)	> 100 µM (inactive)	> 100 µM (inactive)	> 100 µM (inactive)	> 100 µM (inactive)
CC(=O)N1CCN(c2ccc(OCC3COC(Cn4ccnc4)(c4ccc(Cl)cc4Cl)O3)cc2)CC1 (configuration not stated) [KETOCONAZOLE]	48 µM (inactive)	35.9 µM (inactive)	25.8	15.4 µM (inactive)	39.4 µM (inactive)	25.6 µM (inactive)	34.6 µM (inactive)	32.7 µM (inactive)	20.7 µM (inactive)	41.7 µM (inactive)		27.6 µM (inactive)	30.6 µM (inactive)	26.7 µM (inactive)	18.7 µM (inactive)	28.8 µM (inactive)
